This note sets out measurements from US5591743A, “3,5-dioxo-(2H,4H)-1,2,4-triazine derivatives as 5HT1A ligands” (Pierre Fabre Medicament, priority 1993, dated 1997).

Structures are written as SMILES. Like-named read-outs stand apart in the source and are kept apart here. Some results are limits rather than exact numbers.

For one assay, the target named is T1, 5-HT1A receptor (Rattus norvegicus, UniProt P19327).
T1 construct: The brain is dissected and the cortex is homogenized in 20 volumes of Tris-HCl buffer; from tissue; host or cells: rat cerebral cortex homogenate
T1 sequence (P19327 1-422): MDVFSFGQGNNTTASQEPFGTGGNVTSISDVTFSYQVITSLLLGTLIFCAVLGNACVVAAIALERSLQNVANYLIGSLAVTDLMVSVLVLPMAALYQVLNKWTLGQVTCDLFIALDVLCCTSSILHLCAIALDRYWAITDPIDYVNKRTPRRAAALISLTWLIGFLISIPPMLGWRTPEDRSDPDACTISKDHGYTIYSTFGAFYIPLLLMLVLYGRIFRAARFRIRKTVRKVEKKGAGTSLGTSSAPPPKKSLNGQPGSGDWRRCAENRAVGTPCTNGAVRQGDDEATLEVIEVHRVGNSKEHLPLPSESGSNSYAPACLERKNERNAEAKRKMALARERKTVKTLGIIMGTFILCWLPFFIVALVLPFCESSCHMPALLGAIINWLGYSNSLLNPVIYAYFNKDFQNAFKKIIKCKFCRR
As to the kind of experiment: Affinity for the receptor 5-HT1A: displacement of [3H]8-OH-DPAT in rat cerebral cortex. Format: binding. Conditions: [3H]8-OH-DPAT 0.2 nM, 23° C., 30 minutes, average of 3 to 5 experiments, read-out: pKi (affinity for the receptor 5-HT1A) (converted). On the procedure:
Thus, they were the object of a study relating to their affinity for serotoninergic receptors such as 5-HT1A.
The study of the bonding to the receptor 5-HT1A is carried out in the manner described by Sleight and Peroutka (Naunyn-Schmiedebergs Arch. Pharmacol. 343:106-116, 1991). For these experiments, rat cerebral cortices are used. The brain is dissected and the cortex is homogenized in 20 volumes of Tris-HCl buffer (50 mM, pH 7.4 at 25° C.) kept at 4° C. The homogenate is centrifuged at 39000 g for 10 minutes, the final product is suspended in the same volume of buffer and centrifuged again. After being again placed in suspension under the same conditions, the homogenate is incubated for 10 minutes at 37° C. and then centrifuged again. The final product is suspended in 80 volumes of reaction buffer containing pargyline (10^- 5M), CaCl2 (4 mM) and ascorbic acid (0.1%) in Tris-HCl (50 mM, pH 7.4 at 25° C.). The final concentration of tissue in the incubation medium is 10 mg/tube.
In the saturation experiments, the reaction tubes contain 0.1 ml of different concentrations of [^3 H]8--OH--DPAT (between 0.06 and 8 nM), 0.1 ml of reaction buffer 5-HT (10^-5 M, in order to determine the non-specific bond) and 0.8 ml of tissue.
The displacement experiments are carried out in the manner described by Sleight and Peroutka (Naunyn-Schmiedebergs Arch. Pharmacol. 343:106-116, 1991). All the dilutions of products to be studied are prepared in the reaction buffer. The reaction tubes contain 0.1 ml of [^3 H]8-OH-DPAT (0.2 nM), 0.1 ml of product to be tested 6-7 concentrations (successive dilutions to 1/10) and 0.8 ml of tissue. […] The radioactivity collected on the filter is analyzed in liquid scintillation by adding 4 ml of scintillating liquid (Emulsifier Safe, Packard). All the experiments are carried out in triplicate and repeated at least 3 times.
The dissociation constant (KD) and the maximum number of bond sites (Bmax) for the radioligand are estimated on the basis of the saturation experiments using the non-linear regression program EBDA/LIGAND (Biosoft) (Munson and Rodbard: Anal. Biochem. 107:220-239, 1980). The affinity constants (Ki) of the reference products are estimated on the basis of the displacement experiments using the EBDA/LIGAND non-linear regression program. […] The data of the displacement experiments are analyzed with the one-site and two-site models respectively and the calculated F makes it possible to determine whether the two-site model is more representative of the data obtained than the one-site model. The values of pKi are given in the form of the average ±SEM of 3 to 5 experiments.
Background: In a radioligand displacement assay an active substance lowers the binding of a labelled ligand.

In assay [1] the target is T2, serotoninergic receptors of type 5-HT1A (Rattus norvegicus, UniProt P19327).
T2 construct: carried out on the male rat (Sprague-Dawley); from tissue; host or cells: whole living male Sprague-Dawley rat (in vivo test)
T2 sequence (P19327 1-422): T1 sequence (P19327 1-422)
As to the kind of experiment: 5-HT syndrome (flat body posture, lower-lip retraction, fore-paw treading). Format: in vivo. Conditions: ip, male Sprague-Dawley rat, i.p. On the procedure: The experiments of the evaluation of the 5-HT syndrome are carried out on the male rat (Sprague-Dawley) by the method described by F. C. Colpaert et al. (Drug. Dev. Res. 26:21-48, 1992).

Where [2] appears, read: FBP, read-out: ED50 FBP (flat body posture).
The mark [3] stands for this setting: FPT, read-out: ED50 FPT (reciprocal fore-paw treading).
Where [4] appears, read: LLR, read-out: ED50 LLR (lower-lip retraction).

With `CCCCn1c(=O)[nH]nc(NCCCCN2CCN(c3cccc(C(F)(F)F)c3)CC2)c1=O` [Compound 11, 4-butyl-3,5-dioxo-(2H, 4H)-6-(4-(4-(3-trifluoromethylphenyl)piperazino)butylamino)-1,2,4-triazine], the Ki at 5-HT1A receptor was 12.6 nM.
For `Cn1nc(NCCCN2CCN(c3cccc(C(F)(F)F)c3)CC2)c(=O)n(C)c1=O` [Compound 6, 2,4-dimethyl-3,5-dioxo-(2H,4H)-6-(3-(4-(3-trifluoromethylphenyl)piperazino)propylamino)-1,2,4-triazine], the Ki on 5-HT1A receptor is 16.2 nM.
The term ED50 denotes the dose at which the effect has come halfway, by size or by number of responders. As to `Cn1nc(NCCCCN2CCN(c3cccc(C(F)(F)F)c3)CC2)c(=O)n(C)c1=O` [Compound 1, 2,4-dimethyl-3,5-dioxo-(2H, 4H)-6-(4-(4-(3-trifluoromethylphenyl)piperazino)butylamino)-1,2,4-triazine], the Ki at 5-HT1A receptor was 0.316 nM. Also, the ED50 in assay [1] (setting [2]), in assay [1] (setting [3]) and in assay [1] (setting [4]) was 0.31 mg/kg in each case.
Turning to `O=C1CC2(CCCC2)CC(=O)N1CCCCN1CCN(c2ncccn2)CC1` [Buspirone, reference compound], the ED50 is 5 mg/kg in assay [1] (setting [2]), more than 40 mg/kg in assay [1] (setting [3]) and 1.25 mg/kg in assay [1] (setting [4]).
Turning to `Cn1nc(NCCCCN2CCN(c3cccc(Cl)c3)CC2)c(=O)n(C)c1=O` [Compound 2, 2,4-dimethyl-3,5-dioxo-(2H,4H)-6-(4(4-(3-chlorophenyl)piperazino)butylamino)-1,2,4-triazine], the Ki on 5-HT1A receptor was 0.398 nM. Also, the values for the ED50 in assay [1] (setting [2]), in assay [1] (setting [3]) and in assay [1] (setting [4]) were 0.31 mg/kg, 40 mg/kg and 0.31 mg/kg, respectively.
For `Cn1nc(NCCCCNCC2COc3ccccc3O2)c(=O)n(C)c1=O` (stereo not shown) [Compound 9, 2,4-dimethyl-3,5-dioxo-(2H,4H)-6-(4-(1,4-benzodioxan-2 ylmethylamino)butylamino)-1,2,4-triazine], the Ki on 5-HT1A receptor is 2.69 nM.
Take `COc1ccccc1N1CCN(CCCCNc2nn(C)c(=O)n(C)c2=O)CC1` [Compound 3, 2,4-dimethyl-3,5-dioxo-(2H,4H)-6-(4-(4-(2-methoxyphenyl)piperazino)butylamino)-1,2,4-triazine]: the Ki at 5-HT1A receptor is 0.617 nM.
In the case of `Cn1nc(NCCCNCC2COc3ccccc3O2)c(=O)n(C)c1=O` (stereo not shown) [Compound 10, 2,4-dimethyl-3,5-dioxo-(2H, 4H)-6-(3-(1,4-benzodioxan-2 ylmethylamino)propylamino)-1,2,4-triazine], the Ki at 5-HT1A receptor is 3.8 nM.
